In US5852007A, “Cysteine and serine protease inhibitors containing D-amino acid at the P2 position, methods of making same, and methods of using same” (priority 1997, dated 1998):
Square brackets hold non-standard residues; d marks the D form. Peptide text beside a SMILES is read from it. * marks the point of attachment. d(hPhe) = N[C@H](CCc1ccccc1)C(=O)O; dPhg = N[C@@H](C(=O)O)c1ccccc1; Tos = Cc1ccc(S(=O)(=O)*)cc1; Ms = CS(=O)(=O)*

Key:
Format in all cases: biochemical
α-chymotrypsin = target: T1, α-chymotrypsin (Bos taurus, UniProt P00766); assay: Inhibition of α-chymotrypsin; conditions: Table III; 10 uM; read-out: Chymotrypsin % I @ 10 uM
T1 construct: purchased Sigma Chem. Co. C-3142
Protocol: Additionally, because α-chymotrypsin is not a calcium sensitive enzyme and is constitutively active, following addition of inhibitor stocks to the 96 well plates, 100 μl of a 2-fold concentrated stock of enzyme in dilution buffer was first added and the reaction started by addition of 100 μl of a 2-fold concentrated stock of substrate in assay buffer. Substrate hydrolysis was monitored every 5 minutes up to 30 minutes using a Fluoroskan II ([…]).

thrombin = target: T2, thrombin (Homo sapiens, UniProt P00734); assay: Inhibition of thrombin; conditions: Table III; 10 uM; read-out: Thrombin % I @ 10 uM
T2 construct: purchased Sigma Chem. Co. T-7009

cathepsin B = target: T3, cathepsin B (Homo sapiens, UniProt P07858); assay: Inhibition of cathepsin B; conditions: Table III; for inhibition at 1 µM: read-out: Cat B % I @ 1 uM; for IC50: read-out: Cat B IC50
T3 construct: purchased Calbiochem 219364
Protocol: (§1) Additionally,the order of reagents added to the plate was altered because both enzymes are constitutively active. Following inhibitor addition to the plates, appropriate 2× concentrated stock dilutions of the enzyme preparations were made in assay buffer and 100 μl added to each well. The assay was initiated by addition of 100 μl of 2× concentrated stock dilution of substrate in assay buffer.

cathepsin L = target: T4, cathepsin L (Homo sapiens, UniProt P07711); assay: Inhibition of cathepsin L; conditions: Table III; 1 uM; read-out: Cat L % I @ 1 uM
T4 construct: purchased Calbiochem 219402
Protocol: as §1

[1] = target: T5, Recombinant human calpain I (Homo sapiens, UniProt P07384); assay: Inhibition of calpain I activity; conditions: Table III
T5 construct: made in house
T5 sequence (P07384 1-714): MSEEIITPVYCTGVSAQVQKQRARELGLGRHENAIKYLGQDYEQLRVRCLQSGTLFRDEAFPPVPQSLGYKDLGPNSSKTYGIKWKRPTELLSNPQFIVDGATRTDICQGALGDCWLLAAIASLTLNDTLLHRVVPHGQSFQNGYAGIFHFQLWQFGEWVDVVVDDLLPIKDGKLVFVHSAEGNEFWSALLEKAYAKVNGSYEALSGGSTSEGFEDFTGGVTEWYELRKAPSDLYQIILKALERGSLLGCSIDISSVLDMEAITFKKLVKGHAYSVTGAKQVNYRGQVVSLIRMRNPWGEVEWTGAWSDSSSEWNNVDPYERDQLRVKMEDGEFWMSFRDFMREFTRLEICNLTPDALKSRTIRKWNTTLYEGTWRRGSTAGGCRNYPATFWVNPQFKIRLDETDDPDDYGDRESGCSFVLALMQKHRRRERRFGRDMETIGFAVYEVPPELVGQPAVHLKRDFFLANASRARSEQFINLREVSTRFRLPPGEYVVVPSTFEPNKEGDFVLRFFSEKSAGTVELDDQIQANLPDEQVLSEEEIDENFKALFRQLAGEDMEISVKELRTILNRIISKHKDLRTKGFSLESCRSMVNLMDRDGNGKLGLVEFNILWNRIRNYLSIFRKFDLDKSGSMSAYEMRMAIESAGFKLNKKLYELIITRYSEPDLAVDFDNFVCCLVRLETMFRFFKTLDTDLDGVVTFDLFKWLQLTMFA
Protocol: To evaluate inhibitory activity, stock solutions (40 times concentrated) of exemplary compounds of the invention were prepared in 100% anhydrous DMSO and 5 μL of each inhibitor preparation were aliquoted into each of three wells of a 96-well plate. Recombinant human calpain I, prepared by the method of Meyer et al. (Biochem. […] To start the reaction, 20 μL of 50 mM CaCl2 in assay buffer was added to all wells of the plate, excepting three, which were used as background signal baseline controls. Substrate hydrolysis was monitored every 5 minutes for a total of 30 minutes. […] Inhibition of calpain I activity was calculated as the percent decrease in the rate of substrate hydrolysis in the presence of inhibitor (VI) relative to the rate in its absence (VO). Comparison between VO and VI was made within the linear range for substrate hydrolysis. For screening, compounds were tested at 10, 1.0, and 0.1 μM. […] The results were plotted as % inhibition versus log inhibitor concentration and the IC50 was calculated from linear regression of the data. Apparent second order rate constants were determined from analysis of reaction progress curves under pseudo-first order conditions. Each determination represents the means of three or more independent single cuvette analyses continually monitored via a Perkin-Elmer LS50B spectrofluorimeter. The rate of inhibition of hydrolysis was obtained by fitting the curve to the exponential equation (1): […]

T4 sequence (P07711 114-288 limits assumed): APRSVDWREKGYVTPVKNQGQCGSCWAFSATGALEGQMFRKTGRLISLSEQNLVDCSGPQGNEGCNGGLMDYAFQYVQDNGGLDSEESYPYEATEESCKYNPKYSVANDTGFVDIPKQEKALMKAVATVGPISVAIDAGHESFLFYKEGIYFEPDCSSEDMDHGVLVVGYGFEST
T4 sequence (P07711 292-333 limits assumed): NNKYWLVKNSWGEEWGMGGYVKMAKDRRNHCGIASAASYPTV

| inhibition at 10 µM (α-chymotrypsin) | inhibition at 10 µM (thrombin) | inhibition at 1 µM (cathepsin B) | inhibition at 1 µM (cathepsin L) | IC50 [1] | inhibition at 0.1 µM [1] | IC50 (cathepsin B) | SMILES |
| --- | --- | --- | --- | --- | --- | --- | --- |
| 0% | 0% | 98% | 100% | 0.072 µM | 25% | – | O=C[C@H](Cc1ccccc1)NC(=O)[C@@H](COCc1ccccc1)NS(=O)(=O)N1CCOCC1 [Compound 53] |
| 3% | 4% | 100% | 100% | 0.013 µM | 95% | – | O=C[C@H](Cc1ccccc1)NC(=O)[C@@H](COCc1ccccc1)NS(=O)(=O)c1cccs1 [Compound 54] |
| 12% | 2% | 90% | 100% | 0.025 µM | 87% | – | Cc1noc(C)c1S(=O)(=O)N[C@H](COCc1ccccc1)C(=O)N[C@H](C=O)Cc1ccccc1 [Compound 55] |
| 4% | 0% | 100% | 100% | 0.02 µM | 86% | 0.005 µM | O=C[C@H](Cc1ccccc1)NC(=O)[C@@H](Cc1ccccc1)NS(=O)(=O)c1ccccc1 [Compound 59] |
| 0% | 0% | 97% | 100% | 0.033 µM | 74% | – | CCS(=O)(=O)N[C@H](Cc1ccccc1)C(=O)N[C@H](C=O)Cc1ccccc1 [Compound 60] |
| 0% | 0% | 100% | 100% | 0.022 µM | 83% | – | Cc1ccc(S(=O)(=O)N[C@H](Cc2ccccc2)C(=O)N[C@H](C=O)Cc2ccccc2)cc1 [Compound 61] (Tos-[dF]-Phe-aldehyde) |
| 4% | 0% | 85% | 89% | 0.039 µM | 71% | – | CS(=O)(=O)N[C@H](CCc1ccccc1)C(=O)N[C@H](C=O)Cc1ccccc1 [Compound 62] (Ms-[d(hPhe)]-Phe-aldehyde) |
| 10% | 0% | 87% | 100% | – | 68% | – | O=C[C@H](Cc1ccccc1)NC(=O)[C@@H](COCc1ccccc1)NC(=O)OCc1ccccc1 [Compound 64] |
| 12% | 0% | 90% | 100% | 0.016 µM | 85% | – | CS(=O)(=O)N[C@H](Cc1ccccc1)C(=O)N[C@H](C=O)Cc1ccccc1 [Compound 70] (Ms-[dF]-Phe-aldehyde) |
| 5% | 11% | 100% | 100% | 0.031 µM | 92% | – | O=C[C@H](Cc1ccccc1)NC(=O)[C@@H](Cc1c[nH]c2ccccc12)NS(=O)(=O)c1ccccc1 [Compound 71] |
| 7% | 13% | 100% | 100% | 0.014 µM | 91% | – | O=C[C@H](Cc1ccccc1)NC(=O)[C@@H](Cc1ccccc1)NS(=O)(=O)c1ccc2ccccc2c1 [Compound 72] |
| 16% | 12% | 100% | 100% | 0.014 µM | 95% | – | O=C[C@H](Cc1ccccc1)NC(=O)[C@@H](Cc1c[nH]c2ccccc12)NS(=O)(=O)c1cccs1 [Compound 73] |
| 13% | 6% | 100% | 100% | 0.033 µM | 83% | – | O=C[C@H](Cc1ccccc1)NC(=O)[C@@H](Cc1ccccc1)NS(=O)(=O)c1cccc2cccnc12 [Compound 74] |
| 2% | 10% | 100% | 99% | 0.02 µM | 91% | – | O=C[C@H](Cc1ccccc1)NC(=O)[C@@H](Cc1ccccc1)NS(=O)(=O)c1cccs1 [Compound 75] |
| 30% | 1% | 79% | 90% | 0.013 µM | 88% | 0.25 µM | CS(=O)(=O)N[C@@H](C(=O)N[C@H](C=O)Cc1ccccc1)c1ccccc1 [Compound 76] (Ms-[dPhg]-Phe-aldehyde) |
| 0% | 0% | 90% | 93% | 0.014 µM | 91% | – | CS(=O)(=O)N[C@H](Cc1c[nH]c2ccccc12)C(=O)N[C@H](C=O)Cc1ccccc1 [Compound 77] (Ms-[dW]-Phe-aldehyde) |
| 0% | 0% | 100% | 100% | 0.012 µM | 94% | 0.006 µM | CN(Cc1ccccc1)C(=O)C[C@@H](NS(C)(=O)=O)C(=O)N[C@H](C=O)Cc1ccccc1 [Compound 78] |
| 8% | 1% | 99% | 93% | 1 µM | 47% | – | CN(Cc1ccccc1)C(=O)CC[C@@H](NS(C)(=O)=O)C(=O)N[C@H](C=O)Cc1ccccc1 [Compound 79] |
| 8% | 4% | 99% | 100% | 0.015 µM | 90% | 0.046 µM | CS(=O)(=O)N[C@H](CS(=O)(=O)Cc1ccccc1)C(=O)N[C@H](C=O)Cc1ccccc1 [Compound 80] |
| 2% | 0% | 73% | 100% | 0.18 µM | 18% | – | CCNC(=O)C(=O)[C@H](Cc1ccccc1)NC(=O)[C@@H](COCc1ccccc1)NS(C)(=O)=O [Compound 81] |
| 8% | 6% | 60% | 93% | – | 4% | – | CC(C)(C)OC(=O)N[C@H](COCc1ccccc1)C(=O)N[C@H](C=O)Cc1ccccc1 [Compound 82] |
| 0% | 7% | 62% | 53% | 0.52 µM | 37% | – | CN([C@H](COCc1ccccc1)C(=O)N[C@H](C=O)Cc1ccccc1)S(C)(=O)=O [Compound 83] |
| 0% | 0% | 22% | 93% | – | 2% | – | CS(=O)(=O)N[C@H](COCc1ccccc1)C(=O)N[C@@H](C=O)Cc1ccccc1 [Compound 84] |
